Assays:
Test in all cases: relative viability (nuclei count vs DMSO), 5 days (fraction); higher = more cells survive
Carboplatin + OSI-027 = compound: C1CC(C1)(C(=O)O)C(=O)O.[NH2-].[NH2-].[Pt+2] [Carboplatin] + COc1cccc2cc(-c3nc([C@H]4CC[C@H](C(=O)O)CC4)n4ncnc(N)c34)[nH]c12 [OSI-027] (partner 0.5 µM)
In short: (§1)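 Each reported value is a median over duplicate plates. It expresses relative viability: treated-well nuclei count divided by vehicle-well nuclei count. Lung cancer cell lines in 1536-well plates were dosed by pin tool a day after seeding, alone with one drug or with a fixed anchor-drug dose plus five library-drug doses (not always all listed) in √10 steps, and nuclei were counted after 5 days.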

MLN4924 + Navitoclax = compound: NS(=O)(=O)OC[C@@H]1C[C@@H](n2ccc3c(N[C@H]4CCc5ccccc54)ncnc32)C[C@@H]1O [MLN4924] + CC1(C)CCC(c2ccc(Cl)cc2)=C(CN2CCN(c3ccc(C(=O)NS(=O)(=O)c4ccc(N[C@H](CCN5CCOCC5)CSc5ccccc5)c(S(=O)(=O)C(F)(F)F)c4)cc3)CC2)C1 [Navitoclax] (partner 0.5 µM)
In short: as §1

MLN4924 + Phenformin = compound: NS(=O)(=O)OC[C@@H]1C[C@@H](n2ccc3c(N[C@H]4CCc5ccccc54)ncnc32)C[C@@H]1O [MLN4924] + N=C(N)NC(=N)NCCc1ccccc1 [Phenformin] (partner 250 µM)
In short: as §1

MLN4924 + Olaparib = compound: NS(=O)(=O)OC[C@@H]1C[C@@H](n2ccc3c(N[C@H]4CCc5ccccc54)ncnc32)C[C@@H]1O [MLN4924] + O=C(c1cc(Cc2n[nH]c(=O)c3ccccc23)ccc1F)N1CCN(C(=O)C2CC2)CC1 [Olaparib] (partner 8 µM)
In short: as §1

Which results are given for UMC-11?
relative viability (Carboplatin + OSI-027; first compound 0.08 µM): 0.462; relative viability (Carboplatin + OSI-027; first compound 0.253 µM): 0.432; relative viability (Carboplatin + OSI-027; first compound 0.8 µM): 0.456; relative viability (Carboplatin + OSI-027; first compound 2.53 µM): 0.462; relative viability (Carboplatin + OSI-027; first compound 8 µM): 0.405; relative viability (MLN4924 + Navitoclax; first compound 0.04 µM): 0.198; relative viability (MLN4924 + Navitoclax; first compound 0.1265 µM): 0.142; relative viability (MLN4924 + Navitoclax; first compound 0.4 µM): 0.167; relative viability (MLN4924 + Navitoclax; first compound 1.265 µM): 0.1; relative viability (MLN4924 + Navitoclax; first compound 4 µM): 0.112; relative viability (MLN4924 + Phenformin; first compound 0.04 µM): 0.322; relative viability (MLN4924 + Phenformin; first compound 0.1265 µM): 0.287; relative viability (MLN4924 + Phenformin; first compound 0.4 µM): 0.266; relative viability (MLN4924 + Phenformin; first compound 1.265 µM): 0.185; relative viability (MLN4924 + Phenformin; first compound 4 µM): 0.189; relative viability (MLN4924 + Olaparib; first compound 0.04 µM): 0.408; relative viability (MLN4924 + Olaparib; first compound 0.1265 µM): 0.246; relative viability (MLN4924 + Olaparib; first compound 0.4 µM): 0.255; relative viability (MLN4924 + Olaparib; first compound 1.265 µM): 0.154; relative viability (MLN4924 + Olaparib; first compound 4 µM): 0.138

Source: the supplement of paper PMC10307832
